Experimental data published in patent US11596716B2, “Compounds and matrices for use in bone growth and repair” (Human BioMolecular Research Institute, priority 2013, dated 2023).
Read-outs that look alike come from different tables or passages of the source.

Columns and labels:
C2C12 cells [1] = assay: qPCR of apoptosis biomarkers (Bax and Fos) in C2C12 cells; type: cell-based, Mouse; settings: 500 nM or 5 μM every 48 hrs, up to 25 days
C2C12 cells [2] = assay: Cell proliferation/viability assay (Resazurin / Alamar blue) in C2C12 cells; type: cell-based, Mouse; settings: for cell viability (Alamar blue): 500 nM every 48 hrs for 25 days
Experimental: Cell proliferation/viability assay: Cells were seeded at a density of 500 cells/well on 96-well plates. After 24 hr, compound (i.e., 5 nM, 50 nM, 500 nM or 5000 nM) was added to the cells in the presence or absence of calcium phosphate matrix (5 mg/mL). […] At the specified time, 1 μg of Resazurin was added to each well of the 96-well plate and the fluorescence signal at 590 nm (excitation at 530 nm) was immediately measured. Readings were designated as time zero values (value0h). Cells were incubated for 1 hr before a second fluorescence measurement at 590 nm was made (value1h). The difference in 1 hr and 0 h (value1h−value0h) readings were used to plot the fold-change in cell proliferation/viability after normalizing to control conditions (i.e., DMSO vehicle treatment). Compounds of Formula II or IV that activate Wnt signaling and compounds of Formula VI that activate TLR signaling pathways were analyzed. This protocol was applied to hMSC and E15 cells as well. Cell proliferation was not robust in keeping with a narrow number of cells highly committed to the bone cell lineage.

hMSCs [3] = assay: qPCR of apoptosis biomarkers (Bax and Fos) in hMSCs; type: cell-based, human; settings: for gene expression of apoptosis biomarkers (Bax and Fos): 500 nM to 5 μM, up to 25 days; for cytotoxicity as determined by quantification of apoptosis: hMSCs
C2C12 cells [4] = assay: qPCR detection of osteogenic markers in C2C12 cells; type: cell-based, Mouse; settings: 500 nM, 6 days
hMSCs [5] = assay: Alkaline Phosphatase functional activity assay in hMSCs; type: cell-based, human; set-up: key to Alkaline Phosphatase activity, −matrix, 8 days / Alkaline Phosphatase activity, +matrix, 8 days / Alkaline Phosphatase activity, −matrix, 25 days / Alkaline Phosphatase activity, +matrix, 25 days: fold-change vs DMSO-treated control (control = 1); settings: for ALP functional activity, compound and matrix versus compound alone or matrix alone / Alkaline Phosphatase activity, +matrix, 8 days / Alkaline Phosphatase activity, +matrix, 25 days / Alkaline Phosphatase activity, −matrix, 25 days / Alkaline Phosphatase activity, −matrix, 8 days: 500 nM; for ALP functional activity, compound and matrix versus compound alone or matrix alone: 8 and 25 day incubations, matrix 5 mg/mL (FIG. 3); for Alkaline Phosphatase activity, +matrix, 8 days / Alkaline Phosphatase activity, +matrix, 25 days: matrix 5 mg/mL; for Alkaline Phosphatase activity, +matrix, 8 days / Alkaline Phosphatase activity, +matrix, 25 days / Alkaline Phosphatase activity, −matrix, 25 days / Alkaline Phosphatase activity, −matrix, 8 days: mean +/− SD (n = 3); for Alkaline Phosphatase activity, −matrix, 8 days: fold; for EC50: dose-dependent induction in hMSCs, read-out: EC50 of induction of ALP activity
hMSCs [6] = assay: Alamar blue cell viability assay in hMSCs; type: cell-based, human; settings: 500 nM, 25-day-old hMSCs
Experimental: Cell proliferation/viability assay: Cells were seeded at a density of 500 cells/well on 96-well plates. After 24 hr, compound (i.e., 5 nM, 50 nM, 500 nM or 5000 nM) was added to the cells in the presence or absence of calcium phosphate matrix (5 mg/mL). One-half of the media was replaced with fresh media containing compound every 48 hours for 8 days. At the specified time, 1 μg of Resazurin was added to each well of the 96-well plate and the fluorescence signal at 590 nm (excitation at 530 nm) was immediately measured. Readings were designated as time zero values (value0h). Cells were incubated for 1 hr before a second fluorescence measurement at 590 nm was made (value1h). The difference in 1 hr and 0 h (value1h−value0h) readings were used to plot the fold-change in cell proliferation/viability after normalizing to control conditions (i.e., DMSO vehicle treatment). Compounds of Formula II or IV that activate Wnt signaling and compounds of Formula VI that activate TLR signaling pathways were analyzed. This protocol was applied to hMSC and E15 cells as well. Cell proliferation was not robust in keeping with a narrow number of cells highly committed to the bone cell lineage.
The assay for cell proliferation followed the same procedure with hMSCs as described for C2C12 cells (Example 7).

C2C12 cells [7] = assay: Alizarin Red S staining (calcium deposition) in C2C12 cells; type: cell-based, Mouse; settings: 500 nM, 25 days of treatment
Experimental: Alizarin Red S Staining: C2C12 cells were cultured as described for the ALP functional activity assay (above, except compound was added every 48 hr for 25 days), but using 48-well plate format. On day 25, medium was removed and the cells were washed with PBS (calcium and magnesium free). Cells were fixed with 70% ethanol at room temperature for 30 mins, rinsed with water 3×. Following removal of water, 200 μl of Alizarin Red S (2%, pH 4.1) was added to each well and incubated for at least 20 mins. The dye was removed and the cells were washed with excess H2O four times with gentle mixing. The cells were covered with water to prevent evaporation and analyzed by plate reader or microscope. This protocol was applied to hMSC and E15 cells.

C2C12 cells [8] = assay: Alkaline Phosphatase (ALP) functional activity assay in C2C12 cells; type: cell-based, Mouse; settings: 500 nM; for ALP activity, combination of compound and matrix compared to compound alone or matrix alone: 6 day incubation, tricalcium phosphate ceramic matrix 5 mg/mL (FIG. 2); for ALP activity fold-changes +/− SD, +matrix / ALP activity fold-changes +/− SD, −matrix: 6 days of culture; for ALP activity fold-changes +/− SD, +matrix: calcium phosphate ceramic 5 mg/mL; for ALP activity fold-changes +/− SD, −matrix: absence of matrix, versus untreated (DMSO) cells
In short: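 C2C12 cells were seeded in 12-well plates at 7,000 cells/well in 1 mL growth media and exposed to compound in 0.1% DMSO (500 nM). Every 48 hrs half the media was replaced with fresh compound-containing media. After 6 days, cells were lysed and ALP activity measured by pNPP hydrolysis at OD405, normalized to protein and DMSO controls.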

[9] = tested on: Human embryonic stem cells E15 (hESCs); assay: qPCR of TLR4/TLR3 ratio and Collagen I in human embryonic stem cells E15; type: cell-based; settings: 500 nM, 8 days
Experimental: Human embryonic stem cells E15 (hESCs) obtained from ATCC with less than 15 passages were cultured at 37° C. in 5% CO2 in DMEM media supplemented with 15% heat inactivated FBS and 1× GlutaMax. TLRs are biomarkers of stem cell differentiation. TLR4 expression is an osteogenic biomarker and TLR3 expression is an adipogenic biomarker. […]

Row | Compound | gene expression of apoptosis biomarkers (Bax and Fos) (C2C12 cells [1]) | cell viability (Alamar blue) (C2C12 cells [2]) | gene expression of apoptosis biomarkers (Bax and Fos) (hMSCs [3]) | cytotoxicity as determined by quantification of apoptosis (hMSCs [3]) | ID3 mRNA expression, presence of matrix (C2C12 cells [4]) | ALP functional activity, compound and matrix versus compound alone or matrix alone (hMSCs [5]) | Alkaline Phosphatase activity, +matrix, 8 days (hMSCs [5]) | Alkaline Phosphatase activity, +matrix, 25 days (hMSCs [5]) | Alkaline Phosphatase activity, −matrix, 25 days (hMSCs [5]) | Alkaline Phosphatase activity, −matrix, 8 days (hMSCs [5]) | EC50 (hMSCs [5]; Homo sapiens) [nM] | cell viability (Alamar blue) (hMSCs [6]) | calcium deposition, absence of matrix (C2C12 cells [7]) | ALP activity, combination of compound and matrix compared to compound alone or matrix alone (C2C12 cells [8]) | ALP activity fold-changes +/− SD, +matrix (C2C12 cells [8]) [fold] | ALP activity fold-changes +/− SD, −matrix (C2C12 cells [8]) [fold] | increase of TLR4/TLR3 ratio in hESCs [9] [fold] | also measured
1 | CC(=O)N1c2ccc(C)cc2[C@H](Nc2ccc(C)cc2)C[C@@H]1C (relative stereo) [Compound 1, cis-1-acetyl-2,6-dimethyl-N-(p-methylphenyl)-1,2,3,4-tetrahydroquinolin-4-amine] | unable to detect gene expression of typical apoptosis biomarkers | did not show a decrease in cell viability | unable to detect gene expression of typical apoptosis biomarkers | no cytotoxicity | 5.0 fold | exceeded the effect of compound alone or matrix alone | 1.5 ± 0.1 | 3.6 ± 0.4 | 1.5 ± 0.1 | 1.2 ± 0.1 | 26 | no decrease in cell viability | 1.6 fold | synergistic increase in ALP activity | 19.4 ± 2.0 |  |  | ID3 mRNA expression, absence of matrix (C2C12 cells [4]): 1.8 fold; calcium deposition, presence of matrix (C2C12 cells [7]): 2.5 fold
2 | CC(C)[C@H](N)C(=O)Oc1ccc(C=CC(=O)C=C(O)C=Cc2ccc(OC(=O)[C@@H](N)C(C)C)cc2)cc1 [Compound 3, (2S,2′S)—O,O′-(3-hydroxy-5-oxohepta-1,3,6-triene-1,7-diyl)bis(4,1-phenylene) bis(2-amino-3-methylbutanoate)] | unable to detect gene expression of typical apoptosis biomarkers | did not show a decrease in cell viability | unable to detect gene expression of typical apoptosis biomarkers | no cytotoxicity | increased expression | exceeded the effect of compound alone or matrix alone | 1.8 ± 0.1 | 2.3 ± 0.2 | 1.7 ± 0.1 | 1.5 ± 0.1 |  | no decrease in cell viability | marked calcium deposition | synergistic increase in ALP activity |  | 1.7 ± 0.2 | 2 | increase in cell proliferation (Alamar Blue Assay) (C2C12 cells [2]; 50 nM, 3 days): 4 fold; EC50 (hMSCs [5]): 140 nM
3 | CC(C)[C@H](N)C(=O)Oc1ccc(/C=C/C(O)=C2\CCC/C(=C\c3ccc(OC(=O)[C@@H](N)C(C)C)cc3)C2=O)cc1 [Compound 4, 4-((1E,3Z)-3-(3-((E)-4-((L-valyl)oxy)benzylidene)-2-oxocyclohexylidene)-3-hydroxyprop-1-en-1-yl)phenyl L-valinate] | unable to detect gene expression of typical apoptosis biomarkers | did not show a decrease in cell viability | unable to detect gene expression of typical apoptosis biomarkers | no cytotoxicity | increased expression | exceeded the effect of compound alone or matrix alone | 2.7 ± 0.2 | 4.0 ± 0.4 | 1.8 ± 0.2 | 1.5 ± 0.1 | 130 | no decrease in cell viability | marked calcium deposition | synergistic increase in ALP activity | 2.6 ± 0.3 | 1.7 ± 0.2 | 2 | 
